From US20240025892A1 (priority 2020, published 2024)
“Also recorded” adds a separate entry of the source.

Columns and labels:
[1] = system: RANKL; assay: RANKL gene expression in Ocy454 cells (RT-qPCR); details: for RANKL expression: 4 hours, RT-qPCR;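 for all read-outs here: Ocy454 cells moved to 37 °C for osteocytic differentiation before compound exposure, RANKL mRNA by SYBR Green qRT-PCR, 2^−ΔΔCT with β-actin normalization, duplicate wells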
[2] = system: eugonadal 8 week old male mice; assay: 3-week mouse study: tibia histology and femur histomorphometry; format: in vivo; details: 3 weeks
Procedure: (§1) […]. In addition, one group of mice with oral vehicle solution (negative control) and another group of mice were treated with once daily subcutaneous hPTH(1-34) (80 μg/kg) injections (positive control). […].

[3] = system: bone cell marker genes, sclerostin; assay: 3-week mouse study: cortical bone RT-qPCR and sclerostin immunohistochemistry; format: in vivo, mice; details: 3 weeks of treatment
Procedure: . For this, cortical bone RNA isolated from mice following three weeks of cmpd. 51 treatment were analyzed and subjected to RT-qPCR for well-established bone cell marker genes. […]. […] Therefore, sclerostin (encoded by the Sost gene) expression in bone in response to cmpd. 51 treatment was also assessed by RT-qPCR and immunohistochemistry. […]. Cmpd. 55A (FIG. 17) was also identified. […]

[4] = Initial mouse pharmacokinetic study; format: in vivo
[5] = 3-week mouse study: tolerability and serum drug levels; format: in vivo, mice
Procedure: […]. For oral gavage, cmpd. 51 was dissolved in vehicle solution of 15% hydroxy-propyl beta-cyclodextrin in sterile water.
as §1

[6] = system: HDAC4/5; assay: HDAC4/5 phosphorylation immunoblot in Ocy454 cells; format: cell-based; details: 2 hours
Procedure: Immunoblotting was performed as previously described (see e.g., Wein et al, Nature Communications, 2016, 7:13176; and Sato et al, Nature Communications, 2020, 11(1):3282). […]. Adherent cells were washed with ice cold PBS, then scraped into TNT buffer on ice. Material was then transferred into Eppendorf tubes kept on ice, vortexed at top speed for 30 seconds, then centrifuged at top speed for 6 minutes at 4° C. For subcellular fractionation, cells were initially resuspended in hypotonic lysis buffer (20 mM HEPES, 10 mM KCl, 1 mM MgCl2, 0.1% Triton X-100, 5% glycerol supplemented with DTT, protease inhibitors, and phosphatase inhibitors) for 5 minutes on ice. Nuclear pellets were spun down at 5,000 rpm for 5 minutes, and the supernatant was saved as the cytoplasmic lysate. Thereafter, the nuclear pellet was washed once in 1 mL hypotonic lysis buffer. The nuclear pellet was then resuspended in hypertonic lysis buffer (20 mM HEPES, 400 mM NaCl, 1 mM EDTA, 0.1% Triton X-100, 5% glycerol supplemented with DTT, protease inhibitors, and phosphatase inhibitors), followed by vortexing twice for 30 seconds. Debris was spun down at 14,000 rpm for 5 minutes, and the supernatant was saved as the nuclear lysate. For immunoblotting, lysates or immunoprecipitates were separated by SDS-PAGE and proteins were transferred to nitrocellulose. Membranes were blocked with 5% milk in tris-buffered saline plus 0.05% Tween-20 (TBST) and incubated with primary antibody overnight at 4° C. The next day, membranes were washed, incubated with appropriate HRP-coupled secondary antibodies, and signals detected with ECL Western Blotting Substrate (Pierce), ECL Plus Western Blotting Substrate (Pierce), or SuperSignal West Femto Maximum Sensitivity Substrate (Thermo scientific). The primary antibodies phospho-HDAC4/5/7 (S246/S259/S155) (Cell Signaling Technology, 3443) and total HDAC5 (Assay Biotech, C0225).

[7] = system: CRTC2 (TORC2); assay: CRTC2 nuclear translocation (PathHunter U2OS); format: cell-based
In short: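 U2OS enzyme-fragment complementation cells (ED-tagged CRTC2, EA-tagged nuclear TAZ domain) treated 90 minutes, duplicate 5-point 4-fold dilutions from 10 μM. Chemiluminescent substrate signal; maximal translocation expressed as percent of forskolin-stimulated signal.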

[8] = system: eugonadal 8 week old male mice; assay: 3-week mouse study: serum mineral metabolism parameters and bone turnover markers; format: in vivo; details: for serum CTX (bone resorption marker) / serum P1NP (bone formation marker): 40 mg/kg oral, 21 days, compared to vehicle; for serum 1,25-vitamin D / serum BUN / serum PTH levels / serum calcium / serum phosphorus: after 21 days of treatment, 2 hours after final dose
Procedure: . In addition, one group of mice with oral vehicle solution (negative control) and another group of mice were treated with once daily subcutaneous hPTH(1-34) (80 μg/kg) injections (positive control). […]. Serum mineral metabolism parameters were measured in mice in all 5 treatment groups after 21 days of treatment (serum was collected 2 hours after the final treatment dose). […]. Serum bone turnover markers (P1NP, a marker of bone formation; CTX, a marker of bone resorption) were next measured on samples collected after 21 days of treatment. […]

[9] = system: SOST; assay: SOST gene expression in Ocy454 cells (RT-qPCR); format: cell-based; details: 4 hours
[10] = system: eugonadal 8 week old male mice; assay: 3-week mouse study: femur microCT; format: in vivo; details: 3 weeks; for midshaft cortical bone tissue mineral density (TMD), microCT: femur
Procedure: as §1

[11] = biological target: SIK3 in HEK293T cells (Homo sapiens (Human), UniProt Q9Y2K2); assay: cell-based; details: read-out: IC50 for SIK3 (nanoBRET)
[12] = biological target: SIK1 (Homo sapiens (Human), UniProt P57059); assay: In vitro SIK1 kinase assay; format: biochemical
[13] = biological target: Recombinant SIK2 (Homo sapiens (Human), UniProt Q9H0K1); assay: biochemical; details: recombinant SIK2 2.5 nM, 1 μM ATP; read-out: SIK2 IC50
[14] = biological target: SIK1 in HEK293T cells (Homo sapiens (Human), UniProt P57059); assay: cell-based; details: read-out: IC50 for SIK1 (nanoBRET)
[15] = biological target: SIK3 (Homo sapiens (Human), UniProt Q9Y2K2); assay: In vitro SIK3 kinase assay; format: biochemical
[16] = biological target: NanoLuc-SIK2 fusion in HEK293 cells (Homo sapiens (Human), UniProt Q9H0K1); assay: cell-based; details: HEK293T cells; read-out: IC50 for SIK2 (nanoBRET)
Sequence of NanoLuc-SIK2 fusion in HEK293 cells (Q9H0K1 whole entry, the tested form may be a part): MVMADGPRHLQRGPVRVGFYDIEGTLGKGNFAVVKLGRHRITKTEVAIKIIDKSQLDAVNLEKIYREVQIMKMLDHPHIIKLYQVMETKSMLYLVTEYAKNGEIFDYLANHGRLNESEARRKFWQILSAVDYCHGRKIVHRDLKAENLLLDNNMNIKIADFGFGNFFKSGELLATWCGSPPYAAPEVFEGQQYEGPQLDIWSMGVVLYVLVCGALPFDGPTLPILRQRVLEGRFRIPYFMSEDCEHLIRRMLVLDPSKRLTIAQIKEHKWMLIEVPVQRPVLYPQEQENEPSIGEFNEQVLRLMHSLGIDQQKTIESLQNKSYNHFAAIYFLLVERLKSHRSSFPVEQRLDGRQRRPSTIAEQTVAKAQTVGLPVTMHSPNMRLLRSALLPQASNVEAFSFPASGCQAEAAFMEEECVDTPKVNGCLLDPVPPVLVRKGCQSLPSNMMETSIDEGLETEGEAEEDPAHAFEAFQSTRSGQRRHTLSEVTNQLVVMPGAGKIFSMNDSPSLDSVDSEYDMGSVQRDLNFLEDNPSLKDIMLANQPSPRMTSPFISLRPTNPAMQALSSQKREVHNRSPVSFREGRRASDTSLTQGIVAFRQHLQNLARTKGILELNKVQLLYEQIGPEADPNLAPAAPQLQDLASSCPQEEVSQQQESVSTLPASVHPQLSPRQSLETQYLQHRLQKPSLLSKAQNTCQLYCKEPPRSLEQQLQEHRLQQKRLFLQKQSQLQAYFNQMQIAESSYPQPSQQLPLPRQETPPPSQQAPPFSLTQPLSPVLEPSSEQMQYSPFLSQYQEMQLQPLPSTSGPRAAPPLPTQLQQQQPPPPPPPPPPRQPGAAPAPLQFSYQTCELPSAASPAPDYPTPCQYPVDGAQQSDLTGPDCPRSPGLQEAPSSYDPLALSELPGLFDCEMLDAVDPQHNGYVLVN

Sequence of Recombinant SIK2 (Q9H0K1 whole entry): as the sequence (Q9H0K1 whole entry, the tested form may be a part) above
Sequence of SIK3 (Q9Y2K2 whole entry, the tested form may be a part): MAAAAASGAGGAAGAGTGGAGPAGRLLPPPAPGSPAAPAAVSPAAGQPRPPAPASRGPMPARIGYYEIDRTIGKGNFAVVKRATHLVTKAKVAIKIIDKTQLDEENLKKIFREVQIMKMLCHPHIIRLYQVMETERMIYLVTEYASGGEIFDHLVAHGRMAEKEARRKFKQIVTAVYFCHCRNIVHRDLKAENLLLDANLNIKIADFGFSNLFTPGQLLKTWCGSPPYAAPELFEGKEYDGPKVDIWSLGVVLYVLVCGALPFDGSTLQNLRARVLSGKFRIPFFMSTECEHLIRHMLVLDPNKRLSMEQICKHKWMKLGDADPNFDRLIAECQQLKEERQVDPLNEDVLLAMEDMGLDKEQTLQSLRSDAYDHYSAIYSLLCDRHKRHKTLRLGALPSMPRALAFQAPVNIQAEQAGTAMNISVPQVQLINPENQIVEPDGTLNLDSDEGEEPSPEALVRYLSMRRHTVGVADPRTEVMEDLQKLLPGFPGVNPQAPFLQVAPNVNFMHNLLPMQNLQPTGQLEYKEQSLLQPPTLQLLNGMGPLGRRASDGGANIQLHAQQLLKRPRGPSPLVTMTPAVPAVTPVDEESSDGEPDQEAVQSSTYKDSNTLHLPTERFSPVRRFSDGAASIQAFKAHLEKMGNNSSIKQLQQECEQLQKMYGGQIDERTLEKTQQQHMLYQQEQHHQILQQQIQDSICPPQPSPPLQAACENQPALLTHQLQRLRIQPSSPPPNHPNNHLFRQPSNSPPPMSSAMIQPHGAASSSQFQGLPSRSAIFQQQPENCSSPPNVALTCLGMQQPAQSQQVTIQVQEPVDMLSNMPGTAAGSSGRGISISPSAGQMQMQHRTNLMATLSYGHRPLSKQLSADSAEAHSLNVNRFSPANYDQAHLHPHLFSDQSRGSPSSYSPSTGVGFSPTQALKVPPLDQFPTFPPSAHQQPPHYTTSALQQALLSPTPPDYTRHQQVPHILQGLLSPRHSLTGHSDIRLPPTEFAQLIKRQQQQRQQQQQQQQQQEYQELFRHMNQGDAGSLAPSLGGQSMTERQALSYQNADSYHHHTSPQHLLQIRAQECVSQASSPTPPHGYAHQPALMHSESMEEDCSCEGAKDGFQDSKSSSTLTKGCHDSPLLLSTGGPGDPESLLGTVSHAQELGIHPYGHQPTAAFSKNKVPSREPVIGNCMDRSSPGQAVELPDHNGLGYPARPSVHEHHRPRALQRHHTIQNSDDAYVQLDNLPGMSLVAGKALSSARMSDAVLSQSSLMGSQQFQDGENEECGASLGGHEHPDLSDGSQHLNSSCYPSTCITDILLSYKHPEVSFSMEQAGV
Sequence of SIK3 in HEK293T cells (Q9Y2K2 whole entry): as the sequence (Q9Y2K2 whole entry, the tested form may be a part) above
Sequence of SIK1 in HEK293T cells (P57059 whole entry): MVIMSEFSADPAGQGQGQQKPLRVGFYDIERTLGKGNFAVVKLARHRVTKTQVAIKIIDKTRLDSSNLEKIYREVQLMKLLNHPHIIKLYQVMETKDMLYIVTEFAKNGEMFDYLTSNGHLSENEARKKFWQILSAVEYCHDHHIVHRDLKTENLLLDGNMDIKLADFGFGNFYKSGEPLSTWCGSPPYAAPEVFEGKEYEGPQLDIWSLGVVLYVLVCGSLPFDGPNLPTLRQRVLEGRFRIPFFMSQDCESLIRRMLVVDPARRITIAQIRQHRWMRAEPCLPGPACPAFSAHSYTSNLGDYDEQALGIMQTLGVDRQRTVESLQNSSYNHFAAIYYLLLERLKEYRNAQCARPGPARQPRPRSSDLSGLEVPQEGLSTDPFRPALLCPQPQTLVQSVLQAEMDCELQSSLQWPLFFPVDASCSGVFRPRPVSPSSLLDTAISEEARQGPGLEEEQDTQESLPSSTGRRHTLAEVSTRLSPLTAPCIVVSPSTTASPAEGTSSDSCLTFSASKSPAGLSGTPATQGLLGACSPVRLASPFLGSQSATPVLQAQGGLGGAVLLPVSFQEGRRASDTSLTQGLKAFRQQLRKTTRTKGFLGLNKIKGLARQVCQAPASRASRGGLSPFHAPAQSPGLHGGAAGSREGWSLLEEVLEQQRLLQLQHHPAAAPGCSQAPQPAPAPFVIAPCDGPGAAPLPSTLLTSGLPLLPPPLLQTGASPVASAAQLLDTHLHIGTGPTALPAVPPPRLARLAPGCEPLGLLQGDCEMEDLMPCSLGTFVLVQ
Sequence of SIK1 (P57059 whole entry): as above

In the case of `CCc1nnc(-c2c(OC)cc(-c3cnc4cc(-c5cnn(C)c5)ccn34)cc2OC)o1` [Example 51, 2-[2,6-Dimethoxy-4-[7-(1-methylpyrazol-4-yl)imidazo[1,2-a]pyridin-3-yl]phenyl]-5-ethyl-1,3,4-oxadiazole], the RANKL expression [1] is reported as “stimulates RANKL expression”, the RANKL expression ([1]; listed as cmpd. 51) is reported as “increased RANKL; also recorded: induction of RANKL” and the “TRAP-positive osteoclasts (tibia sections)” value ([2]; cmpd. 51 40 mg/kg) is reported as “increased TRAP-positive osteoclasts”. For the same compound, the “osteoblasts (tibia sections)” value ([2]; cmpd. 51 40 mg/kg) was “increased osteoblasts”, the “trabecular bone (tibia sections, hematoxylin and eosin)” value ([2]; cmpd. 51 40 mg/kg) was “increased trabecular bone mass” and the “bone formation rate (BFR/BS), histomorphometry” value ([2]; distal femur metaphysis) was “increased the bone formation rate”. The “bone volume fraction (BV/TV), histomorphometry” value ([2]; distal femur metaphysis) was “increased bone volume fraction (BV/TV); also recorded: increased trabecular bone mass”, the “matrix apposition rate (MAR), histomorphometry” value ([2]; distal femur metaphysis) was “increased matrix apposition rate” and the “mineralizing surface (MS/BS), histomorphometry” value ([2]; distal femur metaphysis) was “Neither cmpd. 51 nor PTH treatment increased”. For the same compound, the “osteoblast surfaces (Ob.S.BS), histomorphometry” value ([2]; distal femur metaphysis) was “increased osteoblast surfaces”, the “osteoclast numbers (N.Oc/B.Pm), histomorphometry” value ([2]; distal femur metaphysis) was “increased osteoclast numbers” and the “Ctsk (cathepsin K) expression in cortical bone” value ([3]; RT-qPCR) was “expression was increased; also recorded: increases the expression”. The “Sost mRNA (sclerostin gene expression) in cortical bone” value ([3]; RT-qPCR) was “reduced sclerostin gene expression”, the “Spp1 (osteopontin) expression in cortical bone” value ([3]; RT-qPCR) was “expression was increased; also recorded: increases the expression of Spp1” and the “sclerostin protein levels in bone” value ([3]; immunohistochemistry) was “reduced”. For the same compound, the oral availability ([4]; single dose of 10 mg/kg) was “excellent oral availability”, the maximum serum concentration ([4]; single oral dose of 10 mg/kg) was 11 µM and the serum drug levels ([5]; 2 hours after oral gavage on day 13, 3 dose groups) was “increased in a dose-dependent manner; also recorded: Dose-dependent increases”. The “tolerability (health concerns, weight loss, toxicities)” value ([5]; mice, once daily oral gavage for 3 weeks) was “without obvious health concerns or weight loss; also recorded: without obvious toxicities”, the HDAC4/5 phosphorylation [6] was “reduces levels of HDAC4/5 phosphorylation” and the HDAC4/5 phosphorylation ([6]; listed as Cmpd. 51) was “reduced phosphorylated HDAC4/5 levels”. For the same compound, the HDAC4/5 phosphorylation ([6]; listed as cmpd. 51) was “dose-dependent reduction of phosphorylation”, the EC50 ([7]; Homo sapiens, U2OS, read-out: CRTC2 nuclear translocation EC50) was 147 nM and the “CRTC2 Efficacy (% of forskolin)” value ([7]; maximal CRTC2 nuclear translocation, U2OS cells, 90 minutes, maximum dose 10 μM) was 86.5 % of forskolin. For the same compound, the “serum CTX (bone resorption marker)” value ([8]; listed as Cmpd. 51) was “increasing this marker of bone remodeling”, the “serum P1NP (bone formation marker)” value ([8]; listed as Cmpd. 51) was “increasing this marker of bone remodeling” and the “serum CTX (bone resorption marker)” value ([8]; listed as cmpd. 51) was “increased”. The “serum P1NP (bone formation marker)” value ([8]; listed as cmpd. 51) was “increased P1NP”, the “serum 1,25-vitamin D” value ([8]; listed as Cmpd. 51) was “increased serum 1,25-vitamin D” and the “serum BUN” value ([8]; listed as Cmpd. 51) was “did not affect serum BUN levels”. For the same compound, the “serum PTH levels” value ([8]; listed as Cmpd. 51) was “suppressed PTH levels”, the serum calcium ([8]; listed as Cmpd. 51) was “increased serum calcium” and the serum phosphorus ([8]; listed as Cmpd. 51) was “did not affect serum phosphorus levels”. The “serum 1,25-vitamin D” value ([8]; listed as cmpd. 51) was “increased 1,25-vitamin D levels”, the “serum BUN” value ([8]; listed as cmpd. 51) was “did not alter” and the “serum PTH levels” value ([8]; listed as cmpd. 51) was “reduced serum PTH levels”. The serum calcium ([8]; listed as cmpd. 51) was “increased calcium”, the serum phosphorus ([8]; listed as cmpd. 51) was “did not alter” and the SOST expression [9] was “reduces SOST”. The SOST expression ([9]; listed as cmpd. 51) was “suppressed SOST expression; also recorded: suppression of SOST expression”, the “primary spongiosa bone mineral density (BMD), microCT” value ([10]; distal femur, 40 mg/kg) was “increased bone mineral density (BMD)” and the “primary spongiosa bone volume fraction (BV/TV), microCT” value ([10]; distal femur, 40 mg/kg) was “increased primary spongiosa bone volume fraction (BV/TV)”. For the same compound, the “midshaft cortical bone tissue mineral density (TMD), microCT” value ([10]; listed as Cmpd. 51) was “increased cortical bone tissue mineral density” and the “midshaft cortical bone tissue mineral density (TMD), microCT” value ([10]; listed as cmpd. 51) was “gains in bone mass”.
In the case of `CCc1nnc(-c2c(OC)cc(-c3cnc4cc(-c5cnn(C6CC6)c5)ccn34)cc2OC)o1` [Example 55, 2-[4-[7-(1-Cyclopropylpyrazol-4-yl)imidazo[1,2-a]pyridin-3-yl]-2,6-dimethoxy-phenyl]-5-ethyl-1,3,4-oxadiazole], the “RANKL Fold Induction” value ([1]; maximal RANKL fold induction versus DMSO, four hours) is reported as 22.80 fold, the IC50 [11] is reported as 4.48 nM and the IC50 [12] is reported as 16 nM. For the same compound, the IC50 [13] was 1.48 nM, the IC50 [14] was 2100 nM and the IC50 [15] was 2.66 nM. It also gave an IC50 [16] of 12.2 nM.
